Experimental data: patent publication US20220106282A1, “TREATMENT FOR BREAST CANCER, INCLUDING TRIPLE-NEGATIVE BREAST CANCER” (priority 2018, published 2022)
Values joined by “and” are separate entries in the source; they are usually repeats but may differ in a detail not shown here. Identical values can stand only once.

What was measured:
[1] = system: human MCF-7 cell culture (breast adenocarcinoma); test: Proliferation of MCF-7 cells under sulfatase inhibition; format: cell-based; conditions: concentration of 20 μg/ml
Method: (§1) The cells were seeded on Carrel vials at 50×10^4 cells per flask. To study the proliferative activity of the cells under conditions of sulfatase inhibition, 24 hours after seeding the culture medium […], and then these tumor cell lines were incubated for various periods of time (24 to 72 hrs). The inhibitor was dissolved in DMSO. […] To exclude the cytotoxic effect of DMSO, a control sample comprising DMSO without sulfatase inhibitor was prepared. To exclude nonspecific detrimental effects of the compounds, normal human skin fibroblasts were used. Then the cells were detached with the versene-trypsin solution (Biolot), plated onto Carrel vials containing a fresh complete culture medium. The cells were counted when untreated control cells reached the maximum cell density per unit of surface area of a culture flask (monolayer), and their number was set as 100%. The proliferative activity of all of the studied cell cultures exposed to sulfatase inhibitors was determined in triplicate.

[2] = system: normal human skin fibroblasts; test: Growth of normal human skin fibroblasts (nonspecific effects); format: cell-based; conditions: concentration of 20 μg/ml; cells having no estrogen receptors
Method: as §1, with “24” for “24 hours after seeding the culture medium”

[3] = system: MDA-MB-231 line of cells of triple-negative breast cancer; test: Cell growth inhibition, MDA-MB-231; format: cell-based; conditions: Homo sapiens
[4] = system: patients having metastases spread into axillary lymph nodes; test: Chemotherapy of patients with axillary lymph node metastases; format: in vivo, human
[5] = system: passaged human tumor of triple-negative breast cancer; test: Animal models with passaged human triple-negative breast tumor; format: in vivo
[6] = Acute oral toxicity, OECD 423 test; format: in vivo; conditions: female, FVB transgenic for HER-2/neu, mouse, in vivo, po, oral (i.g.), OECD 423
[7] = system: FVB mice transgenic for HER-2/neu; test: Acute oral toxicity, OECD 423 test; format: in vivo
[8] = Hormonal effect: uterine body weight in tumor-bearing mice; format: in vivo, mouse

C[C@H]1Oc2cc(OS(N)(=O)=O)ccc2[C@H]2CC[C@]3(C)C(=O)CCC[C@H]3[C@H]21 [compound of formula (1), 3-O-sulphamoyloxy-7β-methyl-D-homo-6-oxa-8α-estra-1,3,5(10)-trien-17a-one]
Proliferation of MCF-7 tumor cells [1]: completely blocks the proliferation | Growth of human skin fibroblasts [2]: does not influence the growth | IC50 [3]: 4.8 µM | Overall survival rate ([4]; as compared to the Tamoxifen treated group): increase the overall survival rate | Prolongation of recurrence-free survival rate ([4]; as compared to the untreated group): 11% | Action compared to Tamoxifen and Letrozole [5]: better action | LD50 at 14 days [6]: ≥ 5000 mg/kg | Lethal effects (dead/total) ([7]; 300 mg/kg single i.g. dose): 0/6 | Body weight, average ([7]; 300 mg/kg single i.g. dose, Day 1 (before administration)): 28.7 g | Body weight, individual mice ([7]; 300 mg/kg single i.g. dose, Day 1 (before administration), listed as medicament): 26.4 and 28.2 and 30.0 and 29.0 (2×) and 29.5 | Body weight, average ([7]; 300 mg/kg single i.g. dose, Day 2): 28.8 g | Body weight, individual mice ([7]; 300 mg/kg single i.g. dose, Day 2, listed as medicament, in g (unit assumed)): 26.4 and 28.0 and 30.8 and 29.6 and 28.6 and 29.2 | Body weight, average ([7]; 300 mg/kg single i.g. dose, Day 7): 29.6 g | Body weight, individual mice ([7]; 300 mg/kg single i.g. dose, Day 7, listed as medicament, in g (unit assumed)): 27.0 and 28.4 and 30.8 and 31.2 and 30.4 and 29.6 | Body weight, average ([7]; 300 mg/kg single i.g. dose, Day 14): 29.6 g | Body weight, individual mice ([7]; 300 mg/kg single i.g. dose, Day 14, listed as medicament, in g (unit assumed)): 27.2 and 28.6 and 30.3 and 31.0 and 30.6 and 29.8 | Lethal effects (dead/total) ([7]; 300 mg/kg single i.g. dose, listed as medicament): no animals deaths | Average body weight, % from baseline ([7]; 300 mg/kg, Day 2): (0) % | Average body weight, % from baseline ([7]; 300 mg/kg, Day 7): (3) % | Average body weight, % from baseline ([7]; 300 mg/kg, Day 14): (3) % | Visual signs of intoxication ([7]; 300 mg/kg, entire observation period): None of the animals exhibited visual signs of intoxication | Clinical signs of intoxication ([7]; 2000 mg/kg): No clinical signs of intoxication were observed | Lethal effects (dead/total) ([7]; 2000 mg/kg i.g.): 0/6 | Body weight, average ([7]; 2000 mg/kg i.g., Day 2): 26.3 g | Body weight, average ([7]; 2000 mg/kg i.g., Day 7): 25.9 g | Body weight, average ([7]; 2000 mg/kg i.g., Day 14): 27.2 g | Average body weight, % from baseline ([7]; 2000 mg/kg, Day 2): (−3) % | Average body weight, % from baseline ([7]; 2000 mg/kg, Day 7): (−4) % | Decrease of body weight from the initial weight ([7]; 2000 mg/kg, Day 7): 4% | Average body weight, % from baseline ([7]; 2000 mg/kg, Day 14): (0) % | Macroscopic changes of the internal organs at autopsy ([7]; Day 15): no changes of the internal organs were detected | Body weight ([8]; 20 mg/kg, all mice): 30.2 ± 1.2 g | Body weight ([8]; 20 mg/kg, estrous phase D): 30.3 ± 1.8 g | Body weight ([8]; 20 mg/kg, estrous phase E): 30.1 ± 1.7 g | Body weight ([8]; 100 mg/kg, all mice): 30.3 ± 0.8 g | Body weight ([8]; 100 mg/kg, estrous phase D): 33.1 ± 4.5 g | Body weight ([8]; 100 mg/kg, estrous phase E): 29.6 ± 0.5 g
